Data set [1] deals with mouse breast cancer cells (4T1). As to the kind of experiment: Cytotoxicity to 4T1 cells. Conditions: incubated 48 h, different concentrations. In kind it is cell-based. On the procedure: (§1) At the cellular level, the cytotoxicity of HDZ to cells is first tested. HDZ at different concentrations is incubated with mouse breast cancer cells (4T1), human breast cancer cells (MBA-MD-231), and vascular epithelial cells (HUVEC) for 48 h. […] Then, the cytotoxicity of D-NPs, C-NPs, H-NPs, and DOX with 4T1, MBA-MD-231, and HUVEC cells is subsequently tested. The experimental results are shown in FIG. 3B, FIG. 3C and FIG. 3D. […] This is because there is a polypeptide cRGD on the surface of C-NPs targeting the integrin αvβ3 overexpressed on the surface of 4T1 and MBA-MD-231 tumor cells, which can make more C-NPs enter the tumor cells and improve their cytotoxicity.

For data set [2], the system named is human breast cancer cells (MBA-MD-231). Briefly: Cytotoxicity to MBA-MD-231 cells. In kind it is cell-based. Conditions: incubated 48 h, different concentrations. On the procedure:
as §1

In data set [3] the test system is vascular epithelial cells (HUVEC). As to the kind of experiment: Cytotoxicity to HUVEC cells. In kind it is cell-based. Conditions: incubated 48 h, different concentrations. On the procedure: as §1
The subject of the next data set is 4T1 tumor-bearing mice. Briefly: Biodistribution in 4T1 tumor-bearing mice (tissue grinding, fluorescence analysis). The class given is in vivo. The following applies: at 48 h versus 24 h. The method, then: In addition, in order to detect the difference in the distribution of free doxorubicin, D-NPs and H-NPs in tumors and other organs, 4T1 tumor-bearing mice are sacrificed at different time intervals after intravenous injection of different drugs, the organs of the mice are taken out for tissue grinding and extraction, and finally fluorescence analysis is performed. It can be seen that compared with free doxorubicin, D-NPs and H-NPs have higher enrichment rates in various organs and tumors of mice, which are about 1.52 and about 1.81 times (24 h) higher than free doxorubicin, respectively. […] From the above cytotoxicity and blood circulation experiments, it can be inferred that this is because compared with free doxorubicin, D-NPs and H-NPs have longer blood circulation capacity in the blood and are not easy to be cleared by cells.

For `NNc1nncc2ccccc12` [HDZ, hydralazine], the cytotoxicity entry in data set [1], in data set [2] and in data set [3] was “not very toxic” throughout.
On to `COc1cccc2c1C(=O)c1c(O)c3c(c(O)c1C2=O)C[C@@](O)(C(=O)CO)C[C@@H]3O[C@H]1C[C@H](N)[C@H](O)[C@H](C)O1` [free doxorubicin, doxorubicin], for which, in the data set on 4T1 tumor-bearing mice, the “change of enrichment in the tumor site with extension of time” value is listed as “decreases”.

The record behind these values is US11786525B1, “High-efficiency anti-tumor nano-drug delivery system containing hydralazine and preparation method thereof” (SHANGHAI INSTITUTE FOR ADVANCED STUDY ZHE JIANG UNIVERSITY, priority 2022, dated 2023).
